In PMC8872763 (Proceedings of the National Academy of Sciences of the …, 2022):

Target: glucose oxidase (GOX) (Aspergillus niger, UniProt P13006)
Assay: time-resolved fluorescence of protein-bound flavin
Format: binding
Settings: 390-nm excitation

Sequence of glucose oxidase (GOX) (P13006 23-605 limits assumed): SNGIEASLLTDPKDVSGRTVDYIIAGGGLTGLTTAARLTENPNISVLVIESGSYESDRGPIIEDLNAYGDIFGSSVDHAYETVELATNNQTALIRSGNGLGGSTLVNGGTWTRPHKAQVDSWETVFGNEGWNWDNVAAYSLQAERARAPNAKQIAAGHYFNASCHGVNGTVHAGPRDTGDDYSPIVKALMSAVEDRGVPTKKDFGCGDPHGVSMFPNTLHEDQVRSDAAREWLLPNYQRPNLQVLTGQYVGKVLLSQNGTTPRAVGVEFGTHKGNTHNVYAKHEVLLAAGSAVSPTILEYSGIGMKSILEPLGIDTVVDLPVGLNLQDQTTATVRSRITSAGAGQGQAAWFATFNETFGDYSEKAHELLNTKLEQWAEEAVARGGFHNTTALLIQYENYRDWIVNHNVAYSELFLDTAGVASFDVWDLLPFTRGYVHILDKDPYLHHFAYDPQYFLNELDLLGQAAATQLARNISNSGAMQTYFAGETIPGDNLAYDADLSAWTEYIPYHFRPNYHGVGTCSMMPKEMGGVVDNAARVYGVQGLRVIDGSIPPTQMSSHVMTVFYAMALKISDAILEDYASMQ

SMILES: Cc1cc2nc3c(=O)[nH]c(=O)nc-3n(C[C@H](O)[C@H](O)[C@H](O)COP(=O)(O)OP(=O)(O)OC[C@H]3O[C@@H](n4cnc5c(N)ncnc54)[C@H](O)[C@@H]3O)c2cc1C [FADox]
- time-resolved fluorescence of protein-bound flavin (Kerr gate): The fluorescence decays of FADox and FADH^− in GOX measured under the same experimental conditions

SMILES: Cc1cc2c(cc1C)N(C[C@H](O)[C@H](O)[C@H](O)COP(=O)(O)OP(=O)(O)OC[C@H]1O[C@@H](n3cnc4c(N)ncnc43)[C@H](O)[C@@H]1O)c1[nH]c(=O)[nH]c(=O)c1N2 [FADH^−]
- time-resolved fluorescence of protein-bound flavin (Kerr gate): time-resolved fluorescence of FADH^− in GOX exhibits monophasic decay
